# What was measured:
# Format in all cases: cell-based
# [1] = target: T1, h[α6R3Q/α3]β4 (Homo sapiens, UniProt P30926+P32297+Q15825, R36Q); assay: Electrophysiological assay, ACh concentration-response (Xenopus oocytes); details: ACh on h[α6R3Q/α3]β4
# T1 construct: formed by splicing the N-terminal extracellular domain of the α6 subunit with the α3 subunit; human nAChR α3 subunit (CHRNA3); expressed in transfected cells; host or cells: Xenopus laevis oocytes injected with cRNA (plasmids from the University of Utah)
# [2] = target: T2, h[α6K7T/α3]β4 (Homo sapiens, UniProt P30926+P32297+Q15825, K40T); assay: as above; details: ACh on h[α6K7T/α3]β4
# T2 construct: formed by splicing the N-terminal extracellular domain of the α6 subunit with the α3 subunit; human nAChR α3 subunit (CHRNA3); expressed in transfected cells; host or cells: Xenopus laevis oocytes injected with cRNA (plasmids from the University of Utah)
# [3] = target: T3, h[α6S10A/α3]β4 (Homo sapiens, UniProt P30926+P32297+Q15825, S43A); details: ACh on h[α6S10A/α3]β4
# T3 construct: formed by splicing the N-terminal extracellular domain of the α6 subunit with the α3 subunit; human nAChR α3 subunit (CHRNA3); expressed in transfected cells; host or cells: Xenopus laevis oocytes injected with cRNA (plasmids from the University of Utah)
# [4] = target: T4, h[α6Q14R/α3]β4 (Homo sapiens, UniProt P30926+P32297+Q15825, Q47R); details: ACh on h[α6Q14R/α3]β4
# T4 construct: formed by splicing the N-terminal extracellular domain of the α6 subunit with the α3 subunit; human nAChR α3 subunit (CHRNA3); expressed in transfected cells; host or cells: Xenopus laevis oocytes injected with cRNA (plasmids from the University of Utah)
# [5] = target: T5, h[α6V32L/α3]β4 (Homo sapiens, UniProt P30926+P32297+Q15825, V65L); details: ACh on h[α6V32L/α3]β4
# T5 construct: formed by splicing the N-terminal extracellular domain of the α6 subunit with the α3 subunit; human nAChR α3 subunit (CHRNA3); expressed in transfected cells; host or cells: Xenopus laevis oocytes injected with cRNA (plasmids from the University of Utah)
# [6] = target: T6, h[α6N58K/α3]β4 (Homo sapiens, UniProt P30926+P32297+Q15825, N91K); assay: Electrophysiological assay, ACh concentration-response (Xenopus oocytes); details: ACh on h[α6N58K/α3]β4
# T6 construct: formed by splicing the N-terminal extracellular domain of the α6 subunit with the α3 subunit; human nAChR α3 subunit (CHRNA3); expressed in transfected cells; host or cells: Xenopus laevis oocytes injected with cRNA (plasmids from the University of Utah)
# [7] = target: T7, h[α6K61R/α3]β4 (Homo sapiens, UniProt P30926+P32297+Q15825, K94R); assay: as above; details: ACh on h[α6K61R/α3]β4
# T7 construct: formed by splicing the N-terminal extracellular domain of the α6 subunit with the α3 subunit; human nAChR α3 subunit (CHRNA3); expressed in transfected cells; host or cells: Xenopus laevis oocytes injected with cRNA (plasmids from the University of Utah)
# [8] = target: T8, h[α6R63C/α3]β4 (Homo sapiens, UniProt P30926+P32297+Q15825, R96C); details: ACh on h[α6R63C/α3]β4
# T8 construct: formed by splicing the N-terminal extracellular domain of the α6 subunit with the α3 subunit; human nAChR α3 subunit (CHRNA3); expressed in transfected cells; host or cells: Xenopus laevis oocytes injected with cRNA (plasmids from the University of Utah)
# [9] = target: T9, h[α6M67T/α3]β4 (Homo sapiens, UniProt P30926+P32297+Q15825, M100T); details: ACh on h[α6M67T/α3]β4
# T9 construct: formed by splicing the N-terminal extracellular domain of the α6 subunit with the α3 subunit; fusion partner: remainder of the human α3 subunit (CHRNA3); expressed in transfected cells; host or cells: Xenopus laevis oocytes injected with cRNA
# [10] = target: T10, h[α6K81N/α3]β4 (Homo sapiens, UniProt P30926+P32297+Q15825, K114N); details: ACh on h[α6K81N/α3]β4
# T10 construct: formed by splicing the N-terminal extracellular domain of the α6 subunit with the α3 subunit; fusion partner: remainder of the human α3 subunit (CHRNA3); expressed in transfected cells; host or cells: Xenopus laevis oocytes injected with cRNA
# [11] = target: T11, h[α6N110D/α3]β4 (Homo sapiens, UniProt P30926+P32297+Q15825, N143D); assay: Electrophysiological assay, ACh concentration-response (Xenopus oocytes); details: ACh on h[α6N110D/α3]β4
# T11 construct: formed by splicing the N-terminal extracellular domain of the α6 subunit with the α3 subunit; fusion partner: remainder of the human α3 subunit (CHRNA3); expressed in transfected cells; host or cells: Xenopus laevis oocytes injected with cRNA
# [12] = target: T12, h[α6M112V/α3]β4 (Homo sapiens, UniProt P30926+P32297+Q15825, M145V); details: ACh on h[α6M112V/α3]β4
# T12 construct: formed by splicing the N-terminal extracellular domain of the α6 subunit with the α3 subunit; fusion partner: remainder of the human α3 subunit (CHRNA3); expressed in transfected cells; host or cells: Xenopus laevis oocytes injected with cRNA
# [13] = target: T13, h[α6I176V/α3]β4 (Homo sapiens, UniProt P30926+P32297+Q15825, I209V); assay: Electrophysiological assay, ACh concentration-response (Xenopus oocytes); details: ACh on h[α6I176V/α3]β4
# T13 construct: formed by splicing the N-terminal extracellular domain of the α6 subunit with the α3 subunit; fusion partner: remainder of the human α3 subunit (CHRNA3); expressed in transfected cells; host or cells: Xenopus laevis oocytes injected with cRNA
# [14] = target: T14, h[α6V32L, K61R/α3]β4 (Homo sapiens, UniProt P30926+P32297+Q15825, K94R/V65L); details: ACh on h[α6V32L
# T14 construct: formed by splicing the N-terminal extracellular domain of the α6 subunit with the α3 subunit; fusion partner: remainder of the human α3 subunit (CHRNA3); expressed in transfected cells; host or cells: Xenopus laevis oocytes injected with cRNA
# [15] = target: T15, h[α6V32L, K61R/α3]β4L107V,V115I (Homo sapiens, UniProt P30926+P32297+Q15825, K94R/L133V/V141I/V65L); details: ACh on h[α6V32L
# T15 construct: formed by splicing the N-terminal extracellular domain of the α6 subunit with the α3 subunit; fusion partner: remainder of the human α3 subunit (CHRNA3); expressed in transfected cells; host or cells: Xenopus laevis oocytes injected with cRNA
# T4 sequence (Q15825+P32297 fused with the stated changes): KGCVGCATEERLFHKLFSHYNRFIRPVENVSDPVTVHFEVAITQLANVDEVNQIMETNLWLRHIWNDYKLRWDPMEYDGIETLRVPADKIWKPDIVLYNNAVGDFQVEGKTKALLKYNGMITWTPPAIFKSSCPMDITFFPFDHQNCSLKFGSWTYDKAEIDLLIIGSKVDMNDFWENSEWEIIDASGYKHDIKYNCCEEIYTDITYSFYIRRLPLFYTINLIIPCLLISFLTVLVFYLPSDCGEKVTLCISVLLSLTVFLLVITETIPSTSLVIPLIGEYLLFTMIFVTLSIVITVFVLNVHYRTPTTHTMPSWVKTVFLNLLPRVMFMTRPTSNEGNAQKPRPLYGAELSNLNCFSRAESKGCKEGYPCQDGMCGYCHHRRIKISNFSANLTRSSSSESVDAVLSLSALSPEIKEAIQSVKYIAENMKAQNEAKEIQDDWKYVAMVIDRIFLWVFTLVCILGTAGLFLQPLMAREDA
# T4 sequence (P30926 22-498): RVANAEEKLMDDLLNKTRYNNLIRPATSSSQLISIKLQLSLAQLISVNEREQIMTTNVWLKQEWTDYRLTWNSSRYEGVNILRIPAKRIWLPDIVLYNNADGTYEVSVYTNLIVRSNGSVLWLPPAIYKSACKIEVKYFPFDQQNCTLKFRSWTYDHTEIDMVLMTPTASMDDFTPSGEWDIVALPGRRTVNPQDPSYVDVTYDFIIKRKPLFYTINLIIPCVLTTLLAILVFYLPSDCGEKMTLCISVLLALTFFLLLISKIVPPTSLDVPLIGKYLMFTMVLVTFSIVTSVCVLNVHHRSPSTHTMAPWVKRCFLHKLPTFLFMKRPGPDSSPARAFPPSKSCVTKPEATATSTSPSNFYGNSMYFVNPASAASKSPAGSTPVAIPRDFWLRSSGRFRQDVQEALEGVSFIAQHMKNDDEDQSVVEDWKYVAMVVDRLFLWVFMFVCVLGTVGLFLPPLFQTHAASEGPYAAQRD
# T2 sequence (Q15825+P32297 fused with the stated changes): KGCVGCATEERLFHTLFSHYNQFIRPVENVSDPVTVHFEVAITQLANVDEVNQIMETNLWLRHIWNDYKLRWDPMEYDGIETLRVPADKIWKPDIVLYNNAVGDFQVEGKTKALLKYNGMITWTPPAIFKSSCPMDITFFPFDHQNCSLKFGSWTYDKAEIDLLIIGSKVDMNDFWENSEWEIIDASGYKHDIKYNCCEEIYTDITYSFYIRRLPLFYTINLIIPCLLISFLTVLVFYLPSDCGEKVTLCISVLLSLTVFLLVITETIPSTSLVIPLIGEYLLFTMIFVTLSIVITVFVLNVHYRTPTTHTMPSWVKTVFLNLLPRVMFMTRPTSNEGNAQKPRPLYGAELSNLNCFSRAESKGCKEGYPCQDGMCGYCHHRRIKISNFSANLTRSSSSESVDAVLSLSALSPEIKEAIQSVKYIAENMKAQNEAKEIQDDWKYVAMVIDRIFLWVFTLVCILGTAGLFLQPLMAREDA
# T2 sequence (P30926 22-498): as the sequence (P30926 22-498) above
# T7 sequence (Q15825+P32297 fused with the stated changes): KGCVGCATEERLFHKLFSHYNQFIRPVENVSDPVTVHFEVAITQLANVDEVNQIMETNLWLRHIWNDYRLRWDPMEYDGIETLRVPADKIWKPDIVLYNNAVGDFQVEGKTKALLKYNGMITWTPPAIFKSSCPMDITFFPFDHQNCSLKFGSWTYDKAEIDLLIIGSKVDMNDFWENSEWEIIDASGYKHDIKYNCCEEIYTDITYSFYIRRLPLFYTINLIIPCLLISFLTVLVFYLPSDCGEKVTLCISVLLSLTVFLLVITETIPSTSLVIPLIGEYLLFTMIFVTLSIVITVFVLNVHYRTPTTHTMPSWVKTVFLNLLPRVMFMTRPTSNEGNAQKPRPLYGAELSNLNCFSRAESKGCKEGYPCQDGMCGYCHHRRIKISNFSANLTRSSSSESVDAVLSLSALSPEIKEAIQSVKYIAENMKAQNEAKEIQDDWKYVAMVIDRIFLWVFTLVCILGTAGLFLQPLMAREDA
# T7 sequence (P30926 22-498): as the sequence (P30926 22-498) above
# T13 sequence (Q15825+P32297 fused with the stated changes): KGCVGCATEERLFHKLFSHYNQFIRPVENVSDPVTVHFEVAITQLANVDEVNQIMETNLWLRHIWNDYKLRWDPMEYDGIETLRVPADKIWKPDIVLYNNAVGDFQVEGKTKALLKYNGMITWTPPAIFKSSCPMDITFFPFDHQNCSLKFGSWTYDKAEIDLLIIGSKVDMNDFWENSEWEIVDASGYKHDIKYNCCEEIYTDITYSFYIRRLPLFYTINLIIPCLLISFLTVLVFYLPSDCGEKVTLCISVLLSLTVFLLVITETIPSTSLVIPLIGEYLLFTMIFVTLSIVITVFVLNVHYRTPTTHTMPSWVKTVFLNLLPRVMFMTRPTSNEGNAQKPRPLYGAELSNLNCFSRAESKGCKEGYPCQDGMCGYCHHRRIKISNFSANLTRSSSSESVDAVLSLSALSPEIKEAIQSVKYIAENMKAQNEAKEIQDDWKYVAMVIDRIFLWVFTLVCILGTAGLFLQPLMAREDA
# T13 sequence (P30926 22-498): as the sequence (P30926 22-498) above
# T10 sequence (Q15825+P32297 fused with the stated changes): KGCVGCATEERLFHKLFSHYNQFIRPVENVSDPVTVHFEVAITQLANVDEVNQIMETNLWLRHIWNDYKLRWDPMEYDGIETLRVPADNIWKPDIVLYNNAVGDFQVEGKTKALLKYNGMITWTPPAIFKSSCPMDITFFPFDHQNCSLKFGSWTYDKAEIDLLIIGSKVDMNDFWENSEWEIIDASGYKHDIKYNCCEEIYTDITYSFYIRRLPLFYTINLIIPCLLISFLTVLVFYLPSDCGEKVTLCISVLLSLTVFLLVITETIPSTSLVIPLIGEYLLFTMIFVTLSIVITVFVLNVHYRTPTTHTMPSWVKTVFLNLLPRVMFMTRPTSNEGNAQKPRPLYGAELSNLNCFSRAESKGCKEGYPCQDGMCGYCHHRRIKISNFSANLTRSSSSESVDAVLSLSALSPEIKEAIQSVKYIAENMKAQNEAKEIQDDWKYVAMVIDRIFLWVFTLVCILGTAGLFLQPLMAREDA
# T10 sequence (P30926 22-498): as the sequence (P30926 22-498) above
compound,measurement,setting,value
"CC(=O)OCC[N+](C)(C)C [ACh, acetylcholine chloride]",Hill Slope,[1],1.4 (1.2–1.8)
same,Hill Slope,[2],1.5 (1.1–1.9)
same,Hill Slope,[3],1.6 (1.2–2.3)
same,Hill Slope,[4],1.4 (1.2–1.6)
same,Hill Slope,[5],1.5 (1.3–1.9)
same,Hill Slope,[6],1.4 (1.2–1.7)
same,Hill Slope,[7],1.4 (1.2–1.7)
same,Hill Slope,[8],1.5 (1.2–1.8)
same,Hill Slope,[9],1.4 (0.9–2.2)
same,Hill Slope,[10],1.4 (1.3–1.7)
same,Hill Slope,[11],1.2 (0.9–1.6)
same,Hill Slope,[12],1.4 (1.1–1.8)
same,Hill Slope,[13],1.7 (1.4–2.1)
same,Hill Slope,[14],1.2 (1.1–1.3)
same,Hill Slope,[15],1.2 (1.0–1.5)

# Reference: publication PMC10218596 (International Journal of Molecular Sciences, 2023)
